Results reported in patent US10214492B2, “Heterocyclic inhibitors of MCT4” (Vettore, LLC, priority 2016, dated 2019).

What was measured:
MCT1 = MCT1 (Homo sapiens (Human), UniProt P53985); experiment: Assay 4: MCT1-mediated lactate transport in BT20 breast cancer cells; type: cell-based; settings: Table 27
Method in brief: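 BT20 cells loaded with BCECF-AM (30 mM DMSO stock) for 5 min at 37° C, washed and resuspended in Tyrode's Solution pH 7.4. Lactate uptake tracked via BCECF intracellular pH signal after adding 10 mM L-lactate.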

[1] = Pharmacokinetic assay in mouse (IV 3 mg/kg, PO 10 mg/kg); type: in vivo; settings: Male CD1 mouse; for Mouse F: oral bioavailability; for Mouse F / half-life: PO 10 mg/kg; for half-life / Vd: plasma; for half-life: read-out: Mouse t1/2 (converted); for Vd: volume of distribution, read-out: Mouse Vss
Description: (§1) The following are assays that may be used to evaluate the pharmacokinetic properties of Formula (I) in mouse or rat. The assays follow a common procedure recited below.
(§2) 1. […] For PO (oral gavage), DMSO/PEG400 (10:90). Formulations freshly prepared on the day of dosing or prior to dosing. Storage at room temperature.
(§3) 2. Test Species: For Mouse: Male CD1 strain, approximately 6-8 weeks in age, approximately 20-30 g. For Rat: Male Sprague-Dawley strain, approximately 6-8 weeks in age, approximately 200-300 g.
(§4) 3. Dose Level: For IV, 3 mg/kg. For PO, 10 mg/kg.
(§5) 4. Number of animals: 3 per assay.
(§6) 5. PK time points: For IV (plasma): 5 min, 15 min, 1, 2, 4, 6, 8, 24 h post dose. For PO (plasma): 15 min, 30 min, 1, 2, 4, 6, 8, 24 h post dose.
(§7) 6. Blood Sample Collection and Processing. Blood was collected (˜0.2 mL per time point) from jugular vein. Blood of each sample was transferred into plastic micro centrifuge tubes containing anticoagulant of EDTA-K2. Blood samples were centrifuged at 2,000 g for 5 minutes at 4° C. to obtain plasma.
(§8) 7. Samples Analysis: Plasma samples were analyzed using LC/MS/MS method, and pharmacokinetic parameters (half-life: t1/2; oral bioavailability: F; volume of distribution: Vss).

MCT4 = MCT4 (Homo sapiens (Human), UniProt O15427); experiment: Assay 3: MCT4-mediated lactate transport in MDA-MB-231 breast cancer cells; type: cell-based; settings: MDA-MB-231 cells; lactate transport
Method in brief: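 MDA-MB-231 cells loaded with BCECF-AM, 5 min at 37° C, washed and resuspended in Tyrode's Solution, pH 7.4. MCT4 lactate/proton symport followed as the intracellular pH change reported by BCECF fluorescence.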

[2] = Pharmacokinetic assay in rat (IV 3 mg/kg, PO 10 mg/kg); type: in vivo; settings: Male Sprague-Dawley rat; for Rat F: oral bioavailability; for Rat F / half-life: PO 10 mg/kg; for half-life / Vd: plasma; for half-life: read-out: Rat t1/2 (converted); for Vd: volume of distribution, read-out: Rat Vss
Description: as §1, §2, §3, §4, §5, §6, §7, §8

[3] = Metabolic stability in human liver microsomes (in vitro t1/2); type: in vitro ADME; settings: for half-life at 2 µM: human liver microsomes 0.5 mg/mL, 2 μM compound, read-out: Human microsome t1/2, min; for Human microsome % 60 min: human liver microsomes
Method in brief: (§9)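 Liver microsomes (0.5 mg/mL final) incubated with test compound at 2 μM final plus NADPH; samples taken at 0, 15, 30, 45 and 60 min. Parent remaining quantified by LC-MS/MS; k from ln(% remaining) vs time regression, in vitro t1/2 = −0.693/k.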

[4] = Metabolic stability in rat liver microsomes (in vitro t1/2); type: in vitro ADME; settings: for half-life at 2 µM: read-out: Rat microsome t1/2, min; for Rat microsome % 60 min: rat liver microsomes
Method: The following are assays that may be used to evaluate the metabolic stability of compounds of Formula (I) in human, rat, or mouse microsomes. The assays follow a common procedure recited below. 1. […] Two separated experiments were performed as follows. a) With NADPH: 10 μL of 20 mg/mL liver microsomes and 40 μL of 10 mM NADPH were added to the incubations. […] The final concentration of microsomes was 0.5 mg/mL. 3. The reaction was started with the addition of 4 μL of 200 μM control compound or test compound solutions. Verapamil was used as positive control in this study. The final concentration of test compound or control compound was 2 μM. 4. Aliquots of 50 μL were taken from the reaction solution at 0, 15, 30, 45 and 60 min. […] Samples were centrifuged at 3,220 g for 40 minutes. A 90 μL aliquot of the supernatant was mixed with 90 μL of ultra-pure H2O and then used for LC-MS/MS analysis. 5. Data analysis. All calculations were carried out using Microsoft Excel. Peak areas were determined from extracted ion chromatograms. The slope value, k, was determined by linear regression of the natural logarithm of the remaining percentage of the parent drug vs. incubation time curve. The in vitro half-life (in vitro t1/2) was determined from the slope value: in vitro t1/2=−(0.693)/k.

[5] = Adjuvant-induced arthritis model in rat: Difference of Weight Bearing test (DWB); type: in vivo; settings: SD rat, CFA-induced arthritis; PO 3 days post CFA; compared to Dexamethasone
[6] = Metabolic stability in mouse liver microsomes (in vitro t1/2); type: in vitro ADME; settings: for Mouse microsome t1/2, min / half-life at 2 µM: mouse liver microsomes 0.5 mg/mL, 2 μM compound; for Mouse microsome % 60 min: mouse liver microsomes; for half-life at 2 µM: read-out: Mouse microsome t1/2, min
Method in brief: as §9

[7] = Adjuvant-induced arthritis model in rat: Mechanical Allodynia test (MA, Von Frey); type: in vivo; settings: SD rat, CFA-induced arthritis; PO 3 days post CFA; compared to Dexamethasone
[8] = rat liver microsomes 0.5 mg/mL, 2 μM compound

Chain of MCT4 (O15427 whole entry, looked up): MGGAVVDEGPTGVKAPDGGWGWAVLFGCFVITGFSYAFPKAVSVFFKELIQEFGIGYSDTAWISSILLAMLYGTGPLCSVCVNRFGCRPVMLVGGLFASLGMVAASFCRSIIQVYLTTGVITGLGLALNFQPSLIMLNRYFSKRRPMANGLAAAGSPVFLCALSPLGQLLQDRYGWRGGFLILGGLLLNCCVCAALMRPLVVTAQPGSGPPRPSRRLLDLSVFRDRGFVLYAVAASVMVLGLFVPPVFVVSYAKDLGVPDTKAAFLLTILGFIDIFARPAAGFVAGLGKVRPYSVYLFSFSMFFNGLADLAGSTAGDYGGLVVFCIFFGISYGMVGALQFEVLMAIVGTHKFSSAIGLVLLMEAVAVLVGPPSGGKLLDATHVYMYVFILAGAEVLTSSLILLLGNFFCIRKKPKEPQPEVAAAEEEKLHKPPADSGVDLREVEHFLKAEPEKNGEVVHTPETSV
Chain of MCT4 (P35613 whole entry partner, looked up): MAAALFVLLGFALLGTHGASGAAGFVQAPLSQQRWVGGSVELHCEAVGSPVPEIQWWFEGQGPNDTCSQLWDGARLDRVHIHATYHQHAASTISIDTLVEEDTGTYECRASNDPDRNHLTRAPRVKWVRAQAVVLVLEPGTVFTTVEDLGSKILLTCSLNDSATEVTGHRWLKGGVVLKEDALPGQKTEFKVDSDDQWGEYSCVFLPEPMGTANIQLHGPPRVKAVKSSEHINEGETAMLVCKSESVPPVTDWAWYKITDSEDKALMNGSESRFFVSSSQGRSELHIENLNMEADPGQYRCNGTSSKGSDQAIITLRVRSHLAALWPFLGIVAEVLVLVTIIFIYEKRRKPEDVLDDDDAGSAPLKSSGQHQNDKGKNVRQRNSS
Chain of MCT1 (P53985 whole entry): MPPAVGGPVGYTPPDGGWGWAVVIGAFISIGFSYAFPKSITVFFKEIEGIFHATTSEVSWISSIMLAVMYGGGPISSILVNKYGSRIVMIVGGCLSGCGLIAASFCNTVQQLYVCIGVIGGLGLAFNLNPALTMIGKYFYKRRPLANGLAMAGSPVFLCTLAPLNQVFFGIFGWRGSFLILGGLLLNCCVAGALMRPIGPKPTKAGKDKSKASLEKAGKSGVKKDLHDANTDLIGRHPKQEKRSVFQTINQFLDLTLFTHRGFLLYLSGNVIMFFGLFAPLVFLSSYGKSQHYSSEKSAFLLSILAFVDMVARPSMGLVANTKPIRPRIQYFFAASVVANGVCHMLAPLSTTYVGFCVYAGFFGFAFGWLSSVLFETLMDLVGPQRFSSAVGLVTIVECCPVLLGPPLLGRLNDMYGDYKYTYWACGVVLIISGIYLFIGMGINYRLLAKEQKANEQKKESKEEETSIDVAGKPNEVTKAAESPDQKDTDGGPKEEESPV
Chain of MCT1 (P35613 140-385 partner): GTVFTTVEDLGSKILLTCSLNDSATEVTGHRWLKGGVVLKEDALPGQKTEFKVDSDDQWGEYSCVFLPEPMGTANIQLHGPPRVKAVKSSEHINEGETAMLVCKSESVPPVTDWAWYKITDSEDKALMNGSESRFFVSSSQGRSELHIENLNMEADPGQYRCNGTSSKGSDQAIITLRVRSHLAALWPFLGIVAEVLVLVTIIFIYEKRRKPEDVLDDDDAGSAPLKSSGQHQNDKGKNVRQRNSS

Structure (SMILES)	IC50 (MCT1)	Mouse F [1]	half-life [1]	Vd [1]	IC50 (MCT4)	Rat F [2]	half-life [2]	Vd [2]	half-life at 2 µM [3]	Human microsome % 60 min [3]	half-life at 2 µM [4, 8]	Rat microsome % 60 min [4]	Mouse microsome t1/2, min [6]	Mouse microsome % 60 min [6]	half-life at 2 µM [6]	Rat microsome t1/2, min [4, 8]	Difference in Weight Bearing, Minimal Efficacious Dose [5]	Mechanical Allodynia (Von Frey), Minimal Efficacious Dose [7]
CCn1ncc2ccc(-c3cc(CO[C@](C)(CC)C(=O)O)nn3-c3ccccc3N3CCC3)cc21 [Example 269, (2R)-2-([1-[2-(Azetidin-1-yl)phenyl]-5-(1-ethyl-1H-indazol-6-yl)-1H-pyrazol-3-yl]methoxy)-2-methylbutanoic acid]	58000 nM	100%	3.3 h	1.3 L/kg	1 nM													
CC(C)(OCc1cc(-c2cccc(OC3CCC3)c2)n(-c2ccccc2Cl)n1)C(=O)O [Example 175, 2-([1-(2-Chlorophenyl)-5-(3-cyclobutoxy-phenyl)-1H-pyrazol-3-yl]methoxy)-2-methylpropanoic acid]						48%	4.2 h	0.4 L/kg	3.53 h	83%	5.25 h	87%		94%	11.8 h		>10 mg/kg	>10 mg/kg
CCOc1cc(OCC)cc(-c2cc(COC(C)(C)C(=O)O)nn2-c2ccccc2Cl)c1 [Example 180, 2-([1-(2-Chlorophenyl)-5-(3,5-diethoxy-phenyl)-1H-pyrazol-3-yl]methoxy)-2-methylpropanoic acid]	28000 nM				2.9 nM	49%	4.4 h	0.39 L/kg	4.6 h	88%	38.2 h	98%	∞	103%			>10 mg/kg	>10 mg/kg
COc1cc(OC)cc(-c2cc(COC(C)(C)C(=O)O)nn2Cc2ccccc2Cl)c1 [Example 224, 2-([1-[(2-Chlorophenyl)methyl]-5-(3,5-di-methoxyphenyl)-1H-pyrazol-3-yl]methoxy)-2-methylpropanoic acid]	30000 nM				4.1 nM	53%	2.6 h	1.3 L/kg	12.3 h	91%	2.2 h	73%		98%	13.8 h		≤10 mg/kg	≤10 mg/kg
CCn1ncc2ccc(-c3cc(CO[C@@](C)(CC)C(=O)O)nn3Cc3ccccc3Cl)cc21 [Example 257, (S)-2-((1-(2-chlorobenzyl)-5-(1-ethyl-1H-indazol-6-yl)-1H-pyrazol-3-yl)methoxy)-2-methylbutanoic acid]	19000 nM	76%	3.6 h	2.8 L/kg	0.35 nM	76%	2.7 h	1.6 L/kg	21.6 h	96%		103%	∞	102%		∞		
CCOc1ccccc1Cn1nc(COC(C)(C)C(=O)O)cc1-c1cc(OC)cc(OC)c1 [Example 211]	20000 nM	57%	1.9 h	1.5 L/kg	2.4 nM	55%	3.6 h	3.6 L/kg	3 h	78%	1.22 h	57%		43%	0.817 h			

Second part, led by results:

IC50 (MCT1)	Mouse F [1]	half-life [1]	Vd [1]	IC50 (MCT4)	Rat F [2]	half-life [2]	Vd [2]	half-life at 2 µM [3]	Human microsome % 60 min [3]	half-life at 2 µM [4, 8]	Rat microsome % 60 min [4]	Mouse microsome t1/2, min [6]	Mouse microsome % 60 min [6]	half-life at 2 µM [6]	Rat microsome t1/2, min [4, 8]	Structure (SMILES)	Difference in Weight Bearing, Minimal Efficacious Dose [5]	Mechanical Allodynia (Von Frey), Minimal Efficacious Dose [7]
> 100000 nM				13 nM	76%	2.2 h	0.3 L/kg	10.7 h	93%	5.3 h	85%	∞	98%			COc1cc(OC)cc(-c2cc(COC(C)(C)C(=O)O)nn2-c2ccccc2Cl)c1 [Example 179, 2-([1-(2-Chlorophenyl)-5-(3,5-dimethoxy-phenyl)-1H-pyrazol-3-yl]methoxy)-2-methylpropanoic acid]	≤10 mg/kg	<10 mg/kg
16000 nM				17 nM	97%	6.3 h	1 L/kg	23.4 h	98%	9.27 h	94%		97%	16.8 h		Cn1ncc2cccc(-n3nc(COC(C)(C)C(=O)O)cc3-c3cccc(OC4CC4)c3)c21 [Example 191, 2-([5-(3-Cyclopropoxyphenyl)-1-(1-methyl-1H-indazol-7-yl)-1H-pyrazol-3-yl]-methoxy)-2-methylpropanoic acid]	>10 mg/kg	>10 mg/kg
36000 nM	24%	1.7 h	2.6 L/kg	0.59 nM	72%	2.2 h	1.2 L/kg	4.17 h	84%	1.23 h	72%		97%	7.17 h		Cn1ncc2cccc(-n3nc(COC(C)(C)C(=O)O)cc3-c3cccc(OCC(C)(C)C)c3)c21 [Example 167, 2-([5-[3-(2,2-dimethylpropoxy)phenyl]-1-(1-methyl-1H-indazol-7-yl)-1H-pyrazol-3-yl]-methoxy)-2-methylpropanoic acid]		
31000 nM	100%	4.4 h	2 L/kg	5.9 nM	94%	3.1 h	1.3 L/kg	2.17 h	71%	6.58 h	91%		96%	12.8 h		CCn1ncc2ccc(-c3cc(COC(C)(C)C(=O)O)nn3-c3ccccc3N3CCC3)cc21 [Example 228, 2-([1-(2-(Azetidin-1-yl)phenyl]-5-(1-ethyl-1H-indazol-6-yl)-1H-pyrazol-3-yl]-methoxy)-2-methylpropanoic acid]		
